Experimental data published in patent EP3928775A1, “USE OF ANTI[…] FOR TREATING THE COVID-19 DISEASE” (priority 2020, dated 2021).
Read-outs that look alike come from different tables or passages of the source.

What was measured:
Covid-19 = format: in vivo, human
SARS-CoV-2 = conditions: in-vitro study, reference 11; cited from earlier work
[1] = Patients admitted to the hospital with Covid-19, exposed vs not exposed

SMILES | risk of intubation or death (in words) (Covid-19; [1]) | antiviral effects on SARS-CoV-2 (SARS-CoV-2) | risk of intubation or death (in words) (Covid-19; in vivo)
CN(C)CCC[C@@]1(c2ccc(F)cc2)OCc2cc(C#N)ccc21 [Escitalopram] | significantly and substantially reduced | has not be observed | –
CNCCC(Oc1ccc(C(F)(F)F)cc1)c1ccccc1 (stereo not drawn) [Fluoxetine] | – | antiviral effects | significantly and substantially reduced
Fc1ccc([C@@H]2CCNC[C@H]2COc2ccc3c(c2)OCO3)cc1 [Paroxetine] | – | has not be observed | –
COc1ccc(C(CN(C)C)C2(O)CCCCC2)cc1 (stereo not drawn) [Venlafaxine] | significantly and substantially reduced | – | –
